Experimental data from article PMC12226733, “Evolution of iGluR ligand specificity, polyamine regulation, and ion selectivity inferred from a placozoan epsilon receptor” (Communications Biology, 2025).
Read-outs that look alike come from different tables or passages of the source.

Experiments:
GluE1αA wildtype = type: cell-based, Trichoplax adhaerens; conditions: […]; for normalized conductance (G-V, Figure 5g), Avg: Na vs Na; for I-V current, Na vs Na, Avg of recordings: Figure 5b
GluE1αA S642R = type: cell-based, Trichoplax adhaerens; conditions: […]; for normalized conductance (G-V, Figure 5g), Avg: Na vs Na; for I-V current, Na vs Na, Avg of recordings: Figure 5b
GluE1αA S642Q plus D646A = type: cell-based, Trichoplax adhaerens; conditions: […]; for normalized conductance (G-V, Figure 5g), Avg: Na vs Na; for I-V current, Na vs Na, Avg of recordings: Figure 5b
[1] = biological target: T1, human GluA2 receptor (wildtype) (Homo sapiens, UniProt P42262); type: cell-based; conditions: for normalized conductance (G-V, Figure 5g), Avg: Na vs Na
T1 construct: host or cells: CHO-K1

GluA2 Q607S = biological target: T2, GluA2 Q607S (Homo sapiens, UniProt P42262, Q607S); type: cell-based; conditions: GluA2 Q-S; for normalized conductance (G-V, Figure 5g), Avg: Na vs Na; for I-V current, Na vs Na, Avg of recordings: Figure 5b
T2 construct: host or cells: HEK-293T/17
T2 sequence (P42262 25-883 Q607S): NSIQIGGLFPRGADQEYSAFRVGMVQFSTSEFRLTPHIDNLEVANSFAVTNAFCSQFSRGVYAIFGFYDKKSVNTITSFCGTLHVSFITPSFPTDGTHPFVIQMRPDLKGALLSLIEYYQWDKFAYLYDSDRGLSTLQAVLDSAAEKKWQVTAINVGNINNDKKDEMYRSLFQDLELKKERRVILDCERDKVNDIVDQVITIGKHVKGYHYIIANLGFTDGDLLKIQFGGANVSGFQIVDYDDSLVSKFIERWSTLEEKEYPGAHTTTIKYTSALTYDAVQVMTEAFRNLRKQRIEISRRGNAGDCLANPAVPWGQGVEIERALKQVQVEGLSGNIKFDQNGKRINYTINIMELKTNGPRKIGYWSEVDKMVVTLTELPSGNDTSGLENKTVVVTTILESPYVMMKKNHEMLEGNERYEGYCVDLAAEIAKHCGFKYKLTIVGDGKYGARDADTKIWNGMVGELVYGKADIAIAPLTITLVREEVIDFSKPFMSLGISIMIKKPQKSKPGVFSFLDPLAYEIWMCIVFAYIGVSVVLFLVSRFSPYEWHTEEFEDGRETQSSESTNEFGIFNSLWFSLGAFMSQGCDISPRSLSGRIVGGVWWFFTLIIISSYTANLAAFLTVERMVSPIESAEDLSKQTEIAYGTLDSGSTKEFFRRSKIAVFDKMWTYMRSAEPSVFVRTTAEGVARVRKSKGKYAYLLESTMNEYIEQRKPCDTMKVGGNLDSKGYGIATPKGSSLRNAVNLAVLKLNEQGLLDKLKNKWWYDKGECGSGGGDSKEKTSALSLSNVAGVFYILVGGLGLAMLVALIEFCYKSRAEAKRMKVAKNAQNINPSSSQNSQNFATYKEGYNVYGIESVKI

T1 sequence (P42262 25-883): as the sequence (P42262 25-883 Q607S) above, with S583Q counted along it

SMILES: [Na+] [Na]
- normalized conductance (G-V, Figure 5g), Avg (GluE1αA wildtype; Vm 0.00): 0.54
- normalized conductance (G-V, Figure 5g), Avg (GluE1αA wildtype; Vm 20.00): 0.50
- normalized conductance (G-V, Figure 5g), Avg (GluE1αA wildtype; Vm 40.00): 0.58
- normalized conductance (G-V, Figure 5g), Avg (GluE1αA wildtype; Vm 60.00): 0.65
- normalized conductance (G-V, Figure 5g), Avg (GluE1αA wildtype; Vm 80.00): 0.67
- normalized conductance (G-V, Figure 5g), Avg (GluE1αA wildtype; Vm -20.00): 0.70
- normalized conductance (G-V, Figure 5g), Avg (GluE1αA wildtype; Vm -40.00): 0.83
- normalized conductance (G-V, Figure 5g), Avg (GluE1αA wildtype; Vm -60.00): 0.93
- normalized conductance (G-V, Figure 5g), Avg (GluE1αA wildtype; Vm -80.00): 1.00
- I-V current, Na vs Na, Avg of recordings (GluE1αA wildtype; Vm 0.00): -0.0053
- I-V current, Na vs Na, Avg of recordings (GluE1αA wildtype; Vm 20.00): 0.11
- I-V current, Na vs Na, Avg of recordings (GluE1αA wildtype; Vm 40.00): 0.23
- I-V current, Na vs Na, Avg of recordings (GluE1αA wildtype; Vm 60.00): 0.38
- I-V current, Na vs Na, Avg of recordings (GluE1αA wildtype; Vm 80.00): 0.54
- I-V current, Na vs Na, Avg of recordings (GluE1αA wildtype; Vm -20.00): -0.15
- I-V current, Na vs Na, Avg of recordings (GluE1αA wildtype; Vm -40.00): -0.34
- I-V current, Na vs Na, Avg of recordings (GluE1αA wildtype; Vm -60.00): -0.54
- I-V current, Na vs Na, Avg of recordings (GluE1αA wildtype; Vm -80.00): -0.77
- normalized conductance (G-V, Figure 5g), Avg (GluE1αA S642R; Vm 0.00): 0.18
- normalized conductance (G-V, Figure 5g), Avg (GluE1αA S642R; Vm 20.00): 0.18
- normalized conductance (G-V, Figure 5g), Avg (GluE1αA S642R; Vm 40.00): 0.22
- normalized conductance (G-V, Figure 5g), Avg (GluE1αA S642R; Vm 60.00): 0.29
- normalized conductance (G-V, Figure 5g), Avg (GluE1αA S642R; Vm 80.00): 0.33
- normalized conductance (G-V, Figure 5g), Avg (GluE1αA S642R; Vm -20.00): 0.24
- normalized conductance (G-V, Figure 5g), Avg (GluE1αA S642R; Vm -40.00): 0.36
- normalized conductance (G-V, Figure 5g), Avg (GluE1αA S642R; Vm -60.00): 0.62
- normalized conductance (G-V, Figure 5g), Avg (GluE1αA S642R; Vm -80.00): 1.00
- I-V current, Na vs Na, Avg of recordings (GluE1αA S642R; Vm 0.00): 0.00344
- I-V current, Na vs Na, Avg of recordings (GluE1αA S642R; Vm 20.00): 0.06
- I-V current, Na vs Na, Avg of recordings (GluE1αA S642R; Vm 40.00): 0.13
- I-V current, Na vs Na, Avg of recordings (GluE1αA S642R; Vm 60.00): 0.22
- I-V current, Na vs Na, Avg of recordings (GluE1αA S642R; Vm 80.00): 0.33
- I-V current, Na vs Na, Avg of recordings (GluE1αA S642R; Vm -20.00): -0.07
- I-V current, Na vs Na, Avg of recordings (GluE1αA S642R; Vm -40.00): -0.16
- I-V current, Na vs Na, Avg of recordings (GluE1αA S642R; Vm -60.00): -0.32
- I-V current, Na vs Na, Avg of recordings (GluE1αA S642R; Vm -80.00): -0.59
- normalized conductance (G-V, Figure 5g), Avg (GluE1αA S642Q plus D646A; Vm 0.00): 0.77
- normalized conductance (G-V, Figure 5g), Avg (GluE1αA S642Q plus D646A; Vm 20.00): 0.75
- normalized conductance (G-V, Figure 5g), Avg (GluE1αA S642Q plus D646A; Vm 40.00): 0.71
- normalized conductance (G-V, Figure 5g), Avg (GluE1αA S642Q plus D646A; Vm 60.00): 0.70
- normalized conductance (G-V, Figure 5g), Avg (GluE1αA S642Q plus D646A; Vm 80.00): 0.74
- normalized conductance (G-V, Figure 5g), Avg (GluE1αA S642Q plus D646A; Vm -20.00): 0.79
- normalized conductance (G-V, Figure 5g), Avg (GluE1αA S642Q plus D646A; Vm -40.00): 0.87
- normalized conductance (G-V, Figure 5g), Avg (GluE1αA S642Q plus D646A; Vm -60.00): 0.95
- normalized conductance (G-V, Figure 5g), Avg (GluE1αA S642Q plus D646A; Vm -80.00): 1.00
- I-V current, Na vs Na, Avg of recordings (GluE1αA S642Q plus D646A; Vm 0.00): -0.02
- I-V current, Na vs Na, Avg of recordings (GluE1αA S642Q plus D646A; Vm 20.00): 0.15
- I-V current, Na vs Na, Avg of recordings (GluE1αA S642Q plus D646A; Vm 40.00): 0.31
- I-V current, Na vs Na, Avg of recordings (GluE1αA S642Q plus D646A; Vm 60.00): 0.47
- I-V current, Na vs Na, Avg of recordings (GluE1αA S642Q plus D646A; Vm 80.00): 0.63
- I-V current, Na vs Na, Avg of recordings (GluE1αA S642Q plus D646A; Vm -20.00): -0.18
- I-V current, Na vs Na, Avg of recordings (GluE1αA S642Q plus D646A; Vm -40.00): -0.37
- I-V current, Na vs Na, Avg of recordings (GluE1αA S642Q plus D646A; Vm -60.00): -0.57
- I-V current, Na vs Na, Avg of recordings (GluE1αA S642Q plus D646A; Vm -80.00): -0.76
- normalized conductance (G-V, Figure 5g), Avg ([1]; Vm 0.00): 0.0219
- normalized conductance (G-V, Figure 5g), Avg ([1]; Vm 20.00): 0.0142
- normalized conductance (G-V, Figure 5g), Avg ([1]; Vm 40.00): 0.0218
- normalized conductance (G-V, Figure 5g), Avg ([1]; Vm 60.00): 0.11
- normalized conductance (G-V, Figure 5g), Avg ([1]; Vm 80.00): 0.29
- normalized conductance (G-V, Figure 5g), Avg ([1]; Vm -20.00): 0.10
- normalized conductance (G-V, Figure 5g), Avg ([1]; Vm -40.00): 0.41
- normalized conductance (G-V, Figure 5g), Avg ([1]; Vm -60.00): 0.86
- normalized conductance (G-V, Figure 5g), Avg ([1]; Vm -80.00): 1.00
- I-V current, Na vs Na, Avg of recordings ([1]; Vm 0.00, Figure 5b): -0.00449
- I-V current, Na vs Na, Avg of recordings ([1]; Vm 20.00, Figure 5b): 0.00351
- I-V current, Na vs Na, Avg of recordings ([1]; Vm 40.00, Figure 5b): 0.00517
- I-V current, Na vs Na, Avg of recordings ([1]; Vm 60.00, Figure 5b): 0.02
- I-V current, Na vs Na, Avg of recordings ([1]; Vm 80.00, Figure 5b): 0.08
- I-V current, Na vs Na, Avg of recordings ([1]; Vm -20.00, Figure 5b): -0.0114
- I-V current, Na vs Na, Avg of recordings ([1]; Vm -40.00, Figure 5b): -0.0751
- I-V current, Na vs Na, Avg of recordings ([1]; Vm -60.00, Figure 5b): -0.30
- I-V current, Na vs Na, Avg of recordings ([1]; Vm -80.00, Figure 5b): -0.69
- normalized conductance (G-V, Figure 5g), Avg (GluA2 Q607S; Vm 0.00): 0.29
- normalized conductance (G-V, Figure 5g), Avg (GluA2 Q607S; Vm 20.00): 0.39
- normalized conductance (G-V, Figure 5g), Avg (GluA2 Q607S; Vm 40.00): 0.47
- normalized conductance (G-V, Figure 5g), Avg (GluA2 Q607S; Vm 60.00): 0.53
- normalized conductance (G-V, Figure 5g), Avg (GluA2 Q607S; Vm 80.00): 0.52
- normalized conductance (G-V, Figure 5g), Avg (GluA2 Q607S; Vm -20.00): 0.28
- normalized conductance (G-V, Figure 5g), Avg (GluA2 Q607S; Vm -40.00): 0.39
- normalized conductance (G-V, Figure 5g), Avg (GluA2 Q607S; Vm -60.00): 0.63
- normalized conductance (G-V, Figure 5g), Avg (GluA2 Q607S; Vm -80.00): 1.00
- I-V current, Na vs Na, Avg of recordings (GluA2 Q607S; Vm 0.00): -0.0234
- I-V current, Na vs Na, Avg of recordings (GluA2 Q607S; Vm 20.00): 0.09
- I-V current, Na vs Na, Avg of recordings (GluA2 Q607S; Vm 40.00): 0.23
- I-V current, Na vs Na, Avg of recordings (GluA2 Q607S; Vm 60.00): 0.41
- I-V current, Na vs Na, Avg of recordings (GluA2 Q607S; Vm 80.00): 0.57
- I-V current, Na vs Na, Avg of recordings (GluA2 Q607S; Vm -20.00): -0.10
- I-V current, Na vs Na, Avg of recordings (GluA2 Q607S; Vm -40.00): -0.20
- I-V current, Na vs Na, Avg of recordings (GluA2 Q607S; Vm -60.00): -0.35
- I-V current, Na vs Na, Avg of recordings (GluA2 Q607S; Vm -80.00): -0.61
